{"source": "patent US9649319B2", "about": "“Process for manufacturing sterile brinzolamide ophthalmic suspension” (INDOCO REMEDIES LIMITED, priority 2012, dated 2017)", "experiment": "Related Substance data of Brinzolamide after sterilization (Gamma irradiation vs Dry heat sterilization)", "assay_type": "physicochemical", "conditions": "for Impurities: Any individual impurity / Impurities: Related Compound B / Impurities: Related Compound C / Impurities: Related Compound D: Limit NMT 0.3%; for Impurities: Total: Limit NMT 1.0%", "description": "The active pharmaceutical ingredient according to the present invention after Dry Heat Sterilization will essentially contain the same physico-chemical properties, its chemical purity and physical form as the starting material from which it is prepared. The degradation, especially chemical degradation caused by the present sterilization process is negligible. A table of comparison for Related Substance data of Brinzolamide after sterilization by Gamma irradiation and Dry heat sterilization is presented below.", "key": {"[1]": {"conditions": "after Gamma irradiation sterilization"}}}
{"compound": "CCN[C@H]1CN(CCCOC)S(=O)(=O)c2sc(S(N)(=O)=O)cc21", "note": "[Brinzolamide, R 4-ethylamino-3,4-dihydro-2-(3-methoxy)propyl-2H-thieno[3,2-e]-1,2-thiazin-6-sulfonamide 1,1 dioxide]", "values": [{"measurement": "Impurities: Any individual impurity", "setting": "after Dry Heat Sterilization", "result": 0.09, "unit": "%"}, {"measurement": "Impurities: Related Compound B", "setting": "after Dry Heat Sterilization", "result": 0.01, "unit": "%"}, {"measurement": "Impurities: Related Compound C", "setting": "after Dry Heat Sterilization", "result": 0.06, "unit": "%"}, {"measurement": "Impurities: Related Compound D", "setting": "after Dry Heat Sterilization", "result": 0.01, "unit": "%"}, {"measurement": "Impurities: Total", "setting": "after Dry Heat Sterilization", "result": 0.43, "unit": "%"}, {"measurement": "Impurities: Any individual impurity", "setting": "[1]", "result": 0.73, "unit": "%"}, {"measurement": "Impurities: Related Compound B", "setting": "[1]", "result": 0.4, "unit": "%"}, {"measurement": "Impurities: Related Compound C", "setting": "[1]", "result": 0.06, "unit": "%"}, {"measurement": "Impurities: Related Compound D", "setting": "[1]", "result": 0.01, "unit": "%"}, {"measurement": "Impurities: Total", "setting": "[1]", "result": 1.98, "unit": "%"}]}
